# Measurements from patent publication US7803765B2, “Methods of constructing biodiverse gene fragment libraries and biological modulators isolated therefrom” (Phylogica Limited, priority 2004, dated 2010).
# Where no end group is shown, it is not given here.
# B1: BGF 35: SCL/E47 peptide blocker; fusion peptide SEQ ID NO: 79, fragment-encoded SEQ ID NO: 81; H. influenzae fragment (peptide)
# chain: MGKPIPNPLLGLDSTQAMGAPPKKKRKVAEFQGRRRQGLSINQWLEKYGYIEMQGNETFKLAVRELSNVVEETLLANNLDKKDLDWLVVVVLVV
# Key:
# monoclonal antibody 2C7 = assay: competition DELFIA of 2C7pan clones binding to 2C7; conditions: for inhibition of clone binding to 2C7 by recombinant Der p 1: competitor recombinant Der p 1
# Text: Competition DELIFAs were then used to study the interaction between the monoclonal antibody and the peptides identified, using recombinant Der p 1 or the epitope of the 2C7 antibody (GST-P1fragment 98-140 […]) as a competitor.
# [1] = tested on: anti-Der p 1 monoclonal antibody 2C7; assay: T7-DELFIA binding of phage-displayed peptides to panning antibody 2C7; conditions: 50 μl lysate in the standard T7-DELFIA; 500 ng/well 2C7
# Description: The monoclonal antibody (approximately 10 μg) was adsorbed to a Petri dish and the amplified phage display library brought into contact with the adsorbed antibody.
# The eluate after round three was amplified and ninety-nine individual T7 clones were tested for binding to the panning antibody 2C7 using a dissociation-enhanced ianthinide fluoroimmunoassay (DELFIA) with 500 ng/well 2C7. Assays were performed essentially according to manufacturer's instructions (Perkin Elmer Life Sciences). The first ligand used in the DELFIA was T7lysate (ie the library) (1:2 in assay buffer); second ligand: SIGMA biotinylated anti-T7 monoclonal antibody 1:10,000 (mouse), Strep-Eur+enhancement solution).
# SCL/E2.22F interaction = molecular target: T1, SCL/E2.22F interaction (Homo sapiens, UniProt P15884+P17542); assay: specificity of blocking: two-hybrid in strain PRT480 expressing E2.22F and SCL; type: cell-based; conditions: yeast strain PRT480, specificity control
# T1 construct: expressed in transfected cells; host or cells: Saccharomyces cerevisiae strain PRT480
# T1 sequence (P17542 whole entry): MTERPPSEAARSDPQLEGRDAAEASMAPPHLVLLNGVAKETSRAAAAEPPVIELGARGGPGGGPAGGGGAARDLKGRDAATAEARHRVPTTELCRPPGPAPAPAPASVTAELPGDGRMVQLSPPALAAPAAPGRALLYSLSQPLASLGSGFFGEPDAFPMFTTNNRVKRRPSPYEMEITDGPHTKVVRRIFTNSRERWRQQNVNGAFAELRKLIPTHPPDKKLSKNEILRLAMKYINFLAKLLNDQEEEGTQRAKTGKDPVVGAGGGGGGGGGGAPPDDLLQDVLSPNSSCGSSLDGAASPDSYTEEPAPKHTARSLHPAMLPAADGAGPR
# T1 sequence (P15884 whole entry): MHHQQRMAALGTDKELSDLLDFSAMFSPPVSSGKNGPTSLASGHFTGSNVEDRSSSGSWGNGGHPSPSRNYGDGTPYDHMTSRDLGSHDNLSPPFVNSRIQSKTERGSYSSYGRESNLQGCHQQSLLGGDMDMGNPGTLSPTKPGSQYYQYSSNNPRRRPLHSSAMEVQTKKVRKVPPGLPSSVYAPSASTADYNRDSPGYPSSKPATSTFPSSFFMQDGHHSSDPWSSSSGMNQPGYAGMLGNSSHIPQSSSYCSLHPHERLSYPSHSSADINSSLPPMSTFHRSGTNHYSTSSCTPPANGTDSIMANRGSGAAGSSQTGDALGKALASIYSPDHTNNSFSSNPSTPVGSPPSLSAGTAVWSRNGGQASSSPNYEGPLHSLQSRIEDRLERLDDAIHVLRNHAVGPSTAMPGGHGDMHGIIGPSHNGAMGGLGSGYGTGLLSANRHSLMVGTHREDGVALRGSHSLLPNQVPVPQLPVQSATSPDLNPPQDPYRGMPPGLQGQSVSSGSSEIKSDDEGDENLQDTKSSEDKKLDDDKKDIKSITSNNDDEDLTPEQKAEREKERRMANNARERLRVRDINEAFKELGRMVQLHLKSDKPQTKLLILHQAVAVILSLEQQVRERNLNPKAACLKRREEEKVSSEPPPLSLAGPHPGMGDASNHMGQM
# Description: (§1) Subsequently, the specificity of blocking was assayed, by mating those strains that did recapitulate the blocked phenotype into a strain PRT480 expressing two interacting proteins selected from the group consisting of: (i) E2,2 2F and SCL; and (ii) ID and E47.
# SCL/E47 interaction = assay: reverse two-hybrid screen for antagonists of the SCL/E47 interaction in yeast; type: cell-based; conditions: re-screened clones
# Text: The nucleic acid encoding the E47 protein was cloned into the bait vector pDD (SEQ NO: 61; FIG. 6) in operable connection with the LexA DNA binding domain. The pDD vector also contains a nucleic acid encoding the HIS3 gene (FIG. 6).
# These vectors were transformed into the PRT 480 yeast strain (which contains two LexA-CYH2 chimeric reporter genes and two LexA-URA3 counter selectable reporter genes).
# The process of screening the library is represented schematically in FIG. 7. […] Approximately 300,000 diploids were plated onto 30 cm plates containing complete synthetic media lacking histidine and tryptophan (ie., HW media), and supplemented with 0.06% (w/v) galactose/0.04% 5-FOA and glucose.
# The FOA-resistant colonies were replica-plated from the master-plate onto plates containing HWU media, or media lacking histidine, tryptophan and leucine (ie. HWL media). The replica-plate media also contained various concentrations of galactose.
# Library plasmids were re-transformed into strain PRT51, and the resultant yeast cells were again mated with strain PRT 480 SCL/E47 haploids. Diploids were re-screened for their ability to block the SCL/E47 interaction, by plating in the forward direction on plates containing HWU or HWL media supplemented with various concentrations of galactose.
# Id1/E47 interaction = molecular target: T2, Id1/E47 interaction (Homo sapiens, UniProt P15923+P41134); assay: specificity of blocking: two-hybrid in strain PRT480 expressing ID and E47; type: cell-based; conditions: yeast strain PRT480, specificity control
# T2 construct: expressed in transfected cells; host or cells: Saccharomyces cerevisiae strain PRT480
# T2 sequence (P41134 1-155): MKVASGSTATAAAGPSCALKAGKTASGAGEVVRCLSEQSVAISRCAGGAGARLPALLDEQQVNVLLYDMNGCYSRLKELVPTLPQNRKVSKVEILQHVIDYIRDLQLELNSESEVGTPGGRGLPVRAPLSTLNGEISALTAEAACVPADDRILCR
# T2 sequence (P15923 1-651 isoform P15923-2): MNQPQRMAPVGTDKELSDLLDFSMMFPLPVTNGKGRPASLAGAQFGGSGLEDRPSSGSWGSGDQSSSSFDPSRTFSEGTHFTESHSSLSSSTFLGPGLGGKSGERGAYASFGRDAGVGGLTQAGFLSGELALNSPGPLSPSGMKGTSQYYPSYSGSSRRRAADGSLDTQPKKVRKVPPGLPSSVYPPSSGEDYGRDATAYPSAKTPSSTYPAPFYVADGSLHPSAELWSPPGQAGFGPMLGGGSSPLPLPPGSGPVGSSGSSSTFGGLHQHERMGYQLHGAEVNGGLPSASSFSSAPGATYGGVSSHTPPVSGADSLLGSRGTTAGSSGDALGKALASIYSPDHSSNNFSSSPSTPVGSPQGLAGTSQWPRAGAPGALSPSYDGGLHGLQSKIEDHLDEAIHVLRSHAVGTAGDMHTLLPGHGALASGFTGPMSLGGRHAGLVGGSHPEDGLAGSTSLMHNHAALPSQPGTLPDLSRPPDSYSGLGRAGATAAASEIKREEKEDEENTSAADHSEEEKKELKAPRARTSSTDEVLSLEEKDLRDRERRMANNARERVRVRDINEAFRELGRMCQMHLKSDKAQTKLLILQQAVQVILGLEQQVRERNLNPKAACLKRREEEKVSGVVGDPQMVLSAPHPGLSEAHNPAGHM
# Description: as §1
# Der p 1 = assay: immunization of mice with 2C7pan phage clones, serum tested by DELFIA and competitive DELFIA; type: in vivo; conditions: for anti-Der p 1 immune response in immunized mice: 10^11 phage particles in Freunds complete adjuvant, bled after first booster, DELFIA; for inhibition of immune serum binding to Der p 1 by recombinant Der p 1: competitive DELFIA, BSA as negative control
# Description: The clones, 2C7pan clones 9, 26 and 42, described in Example 8 were then used to immunize mice. Phage were purified by CsCl gradient centrifugation and then used to immunize mice. Each injection consisted of 10^11 phage particles suspended in Freunds complete adjuvant. After the first booster mice were bled and tested by DELFIA for binding to Der p 1. Furthermore, the specificity of the immune response for Der p 1 was tested using competitive DELFIA.
Molecule,inhibition of clone binding to 2C7 by recombinant Der p 1 (monoclonal antibody 2C7),TRF (time resolved fluorometry) binding to 2C7 [1] [TRF],Target interaction SCL/E2.22F blocked (SCL/E2.22F interaction),Target interaction SCL/E47 blocked (SCL/E47 interaction),Target interaction Id1/E47 blocked (Id1/E47 interaction),anti-Der p 1 immune response in immunized mice (Der p 1),inhibition of immune serum binding to Der p 1 by recombinant Der p 1 (Der p 1),inhibition of clone binding to 2C7 by GST-P1fragment 98-140 (monoclonal antibody 2C7; competitor GST-P1fragment 98-140 (2C7 epitope))
GDPN S R G K S R E Y L S (GDPNSRGKSREYLS; numbers in words are those of the source; also: displayed on T7 phage) [Clone 2c7pan14],specifically inhibited,1800,,,,,,
"BGF 06: SCL/E47 peptide blocker; fusion peptide SEQ ID NO: 67, fragment-encoded SEQ ID NO: 69; A. aeolicus fragment (MGKPIPNPLLGLDSTQAMGAPPKKKRKVAEFRSDYKDDDDKAYHIIAVCFLIKVS)",,,−,+,−,,,
GDPN S A S G T A (GDPNSASGTA; numbers in words are those of the source; also: displayed on T7 phage) [Clone 2c7pan9],specifically inhibited,17000,,,,an anti-Der p 1 immune response was induced,inhibited by the addition of recombinant Der p 1,
GDPN S S T S P R (GDPNSSTSPR; numbers in words are those of the source; also: displayed on T7 phage) [Clone 2c7pan8],specifically inhibited,1900,,,,,,
GDPN S S S V D K L G Y W R V T E S S N E (GDPNSSSVDKLGYWRVTESSNE; numbers in words are those of the source; also: displayed on T7 phage) [Clone 2c7pan42],only partially inhibited,64000,,,,an anti-Der p 1 immune response was induced,inhibited by the addition of recombinant Der p 1,higher levels of inhibition
"BGF 13: SCL/E47 peptide blocker; fusion peptide SEQ ID NO: 71, fragment-encoded SEQ ID NO: 73; H. influenzae fragment (MGKPIPNPLLGLDSTQAMGAPPKKKRKVAEFGFCSNQMREM)",,,−,+,−,,,
"BGF 05: non-specific blocker clone; fusion peptide SEQ ID NO: 63, fragment-encoded SEQ ID NO: 65; H. influenzae fragment (MGKPIPNPLLGLDSTQAMGAPPKKKRKVAEFARTTTTRLINQSVVRKIWLYRDAR)",,,+,+,+,,,
GDP R T H R (GDPRTHR; numbers in words are those of the source; also: displayed on T7 phage) [Clone 2c7pan26],specifically inhibited,8500,,,,an anti-Der p 1 immune response was induced,inhibited by the addition of recombinant Der p 1,
"BGF 24: SCL/E47 peptide blocker; fusion peptide SEQ ID NO: 75, fragment-encoded SEQ ID NO: 77; T. maritima fragment (MGKPIPNPLLGLDSTQAMGAPPKKKRKVAEFRSDYKDDDDKLIKHHWVLSIITTASR)",,,−,+,−,,,
B1,,,−,+,−,,,
